Holding throughout (assay): inside-out patch clamp, HEK293, macroscopic current at +[…] mV, Hill fit
Holding throughout (assay type): cell-based
In general terms: In patch-clamp work, channel activity is measured electrically.

Assay [1] concerns the target mouse TRPM4 (Mus musculus, UniProt Q7TN37, H160A).
For assay [2], the target named is mouse TRPM4 (Mus musculus, UniProt Q7TN37, Y228A).
Assay [3] has as its target mouse TRPM4 (Mus musculus, UniProt Q7TN37).
For assay [4], the target named is mouse TRPM4 (Mus musculus, UniProt Q7TN37, W214A).
Chain of mouse TRPM4 (Mus musculus, UniProt Q7TN37, W214A) (Q7TN37 whole entry W214A): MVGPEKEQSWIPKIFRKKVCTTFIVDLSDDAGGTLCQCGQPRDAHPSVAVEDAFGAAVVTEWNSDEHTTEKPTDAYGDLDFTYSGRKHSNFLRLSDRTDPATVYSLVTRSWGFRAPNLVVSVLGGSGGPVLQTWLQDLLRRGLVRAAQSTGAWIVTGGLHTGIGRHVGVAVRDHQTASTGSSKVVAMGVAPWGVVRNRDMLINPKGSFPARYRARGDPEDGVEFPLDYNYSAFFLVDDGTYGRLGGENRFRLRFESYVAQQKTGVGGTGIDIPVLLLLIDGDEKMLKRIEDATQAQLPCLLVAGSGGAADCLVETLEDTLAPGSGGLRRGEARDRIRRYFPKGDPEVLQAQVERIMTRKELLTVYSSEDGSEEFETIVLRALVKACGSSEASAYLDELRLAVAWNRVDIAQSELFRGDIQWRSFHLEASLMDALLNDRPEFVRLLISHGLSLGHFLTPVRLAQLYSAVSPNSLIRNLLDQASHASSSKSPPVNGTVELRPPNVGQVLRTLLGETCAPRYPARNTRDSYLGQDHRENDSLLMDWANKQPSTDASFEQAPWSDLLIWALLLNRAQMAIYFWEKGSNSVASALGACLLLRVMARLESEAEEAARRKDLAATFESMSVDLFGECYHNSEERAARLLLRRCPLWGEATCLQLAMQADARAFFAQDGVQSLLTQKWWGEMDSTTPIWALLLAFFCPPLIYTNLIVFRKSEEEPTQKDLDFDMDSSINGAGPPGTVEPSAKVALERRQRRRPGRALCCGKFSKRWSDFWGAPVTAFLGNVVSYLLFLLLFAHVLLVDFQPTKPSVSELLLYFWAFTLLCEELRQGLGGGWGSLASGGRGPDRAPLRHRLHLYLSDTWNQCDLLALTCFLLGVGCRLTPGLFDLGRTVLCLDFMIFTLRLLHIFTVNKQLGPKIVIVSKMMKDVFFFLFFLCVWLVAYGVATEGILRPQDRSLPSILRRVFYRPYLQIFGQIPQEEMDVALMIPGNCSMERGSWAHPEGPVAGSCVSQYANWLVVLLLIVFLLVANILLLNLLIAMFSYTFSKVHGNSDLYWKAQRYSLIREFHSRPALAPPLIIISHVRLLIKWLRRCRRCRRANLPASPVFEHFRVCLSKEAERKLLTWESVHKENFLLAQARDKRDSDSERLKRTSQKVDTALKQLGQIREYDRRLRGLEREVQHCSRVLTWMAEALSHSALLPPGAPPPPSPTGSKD

Here are results for one compound from PMC5901961 (Nature, 2017).

Chain of mouse TRPM4 (Mus musculus, UniProt Q7TN37, H160A) (Q7TN37 whole entry H160A): as the sequence (Q7TN37 whole entry W214A) above, with H160A, A214W counted along it
Chain of mouse TRPM4 (Mus musculus, UniProt Q7TN37, Y228A) (Q7TN37 whole entry Y228A): as the sequence (Q7TN37 whole entry W214A) above, with A214W, Y228A counted along it
Chain of mouse TRPM4 (Mus musculus, UniProt Q7TN37) (Q7TN37 whole entry): as the sequence (Q7TN37 whole entry W214A) above, with A214W counted along it

As to `Nc1ncnc2c1ncn2[C@@H]1O[C@H](COP(=O)(O)OP(=O)(O)OP(=O)(O)O)[C@@H](O)[C@H]1O` [ATP], the IC50 (in general, the concentration that inhibits the measured activity by half) was over 160 µM in assay [1], 14.2 ± 0.7 µM in assay [2], 2.3 ± 0.5 µM in assay [3] and 6.5 ± 0.8 µM in assay [4].
